From patent US20250325492A1, “IONIZABLE LIPIDS, LIPID NANOPARTICLES FOR MRNA DELIVERY AND METHODS OF MAKING THE SAME” (University of Cincinnati, priority 2022, published 2025) come the findings set out here.

In experiment [1] the test system is human Jurkat T cells. Kind of experiment: In vitro mRNA transfection efficiency (eGFP fluorescence), flow cytometry. The following applies: 44-hour incubation; for transfection efficiency: 100 ng mRNA per well, eGFP fluorescence, FIG. 17B; for transfection efficiency, result in words: compared with the controls. Type of experiment: cell-based. Here is the method:
(§1) Flow cytometry was used to determine in vitro cellular uptake and transfection efficacy in human Jurkat T cells. The cells were seeded in a 96-well plate at a density of 40,000 cells/well. Different formulations containing 100 ng of mRNA were added to each well and were incubated for 44 hours at 37° C. The cells were washed and centrifuged at 300×g. The supernatant was discarded. After the cells were diluted in PBS, flow cytometry analysis was performed to quantify the amounts of cellular uptake and transfection efficiency.
(§2) LNPs with different compositions were tested against Jurkat cells for both cellular uptake and mRNA transfection efficiencies, as depicted in FIGS. 17A and 17B respectively. Human Jurkat cells are representative T lymphocytes which are known to be difficult to transfect. The LNPs were tested for cellular uptake using Cy5-labeled eGFP mRNA. Cy5 fluorescent dye was used to determine the cellular uptake while eGFP fluorescence was used to determine the transfection efficiency of the mRNA encapsulated in the different LNP formulations. After 44-hour incubation, fluorescence was measured using a flow cytometer. In Jurkat cells, the cellular uptake was ˜36% for the positive control, SM-102 while the transfection efficiency was ˜91%.

The test system of experiment [2] is human Jurkat T cells. Kind of experiment: In vitro cellular uptake of Cy5-labeled eGFP mRNA LNPs, flow cytometry. In kind it is cell-based. Particulars: 44-hour incubation; for cellular uptake efficiency, result in words: compared with the controls. The protocol: as §1, §2

Compound `CCCCCCCCC(CCCCCC)COC(=O)CCCCCN(CCCCCC(=O)OCC(CCCCCC)CCCCCCCC)CCN(C)C` (stereo not shown) [Control 2, 1,1′-bis(2-hexyldecyl) 6,6′-[[2-(dimethylamino)ethyl]imino]bis[hexanoate], reference compound] gave a transfection efficiency in the experiment with human Jurkat T cells [1] of 80%.
Same read-out and setting: as for `CCCCCCCCC(CCCCCC)COC(=O)CCCCCN(CCCCCC(=O)OCC(CCCCCC)CCCCCCCC)CCN(CCO)C1CCC1` (stereo not shown) [Lipid 1], the figure is 59%.
`CCCCCCCCC(CCCCCC)COC(=O)CCCCCN(CCCCCC(=O)OCC(CCCCCC)CCCCCCCC)CCN(CCN(C)C)C1CCC1` (stereo not shown) [Lipid 2, 2-hexyldecyl 6-[(2-{cyclobutyl[2-(dimethylamino)ethyl]amino}ethyl)({6-[(2-hexyldecyl)oxy]-6-oxohexyl})amino]hexanoate]: the “cellular uptake efficiency, result in words” value with human Jurkat T cells [2] is “outperformed the controls”. For the same compound, in the experiment on human Jurkat T cells [1], the transfection efficiency is 92% and the “transfection efficiency, result in words” value was “outperformed the controls”.
For the compound `CCCCCCCCC(CCCCCC)COC(=O)CCCCCN(CCCCCC(=O)OCC(CCCCCC)CCCCCCCC)CCN(CCCN(C)C)C1CCC1` (stereo not shown) [Lipid 3, 2-hexyldecyl 6-[(2-{cyclobutyl[3-(dimethylamino)propyl]amino}ethyl)({6-[(2-hexyldecyl)oxy]-6-oxohexyl})amino]hexanoate], the “cellular uptake efficiency, result in words” value with human Jurkat T cells [2] is listed as “outperformed the controls”. For the same compound, in the experiment on human Jurkat T cells [1], the transfection efficiency is reported as 78% and the “transfection efficiency, result in words” value is listed as “outperformed the controls”.
Regarding `CCCCCCCCCCCOC(=O)CCCCCN(CCO)CCCCCCCC(=O)OC(CCCCCCCC)CCCCCCCC` [SM-102, reference compound], the cellular uptake with human Jurkat T cells [2] (100 ng mRNA per well, Cy5 fluorescence, FIG. 17A) was about 36%. This compound came in with a transfection efficiency with human Jurkat T cells [1] of about 91%.
